Patent US20200123555A1, “USE OF MALONYLTRANSFERASE GENE” (Suntory Holdings Limited, priority 2017, published 2020)
Each block holds one compound with its values, some of them ahead of it.

Experiments:
Dm3MaT3 [1] = test: Enzyme activity, His-tag purified Dm3MaT3 protein solution; assay type: biochemical, chrysanthemum; details: 10 μg Dm3MaT3 protein, 5 μl of 500 μg/ml substrate, malonyl-CoA, 20 minutes at 30° C., pH 7.0
Protocol: The Escherichia coli strain BL21 introduced with pET32a-Dm3MaT3 described in Example 1 was cultured using the Overnight Express Autoinduction System 1 (Novagen) in accordance with the protocol recommended by the manufacturer. The transformed Escherichia coli was cultured at 37° C. in 8 ml of prepared culture broth until the OD600 value reached 0.5 (approximately 4 hours). This Escherichia coli broth was used as pre-culture broth and added to 200 ml of culture broth followed by culturing overnight at 25° C.
After culturing overnight, the Escherichia coli broth was centrifuged (1000×g, 4° C., 10 minutes) and the harvested bacterial cells were suspended in 20 ml of extraction buffer (composition: 300 mM KCl, 50 mM KH2PO4, 5 mM imidazole (pH 8.0), 10 μM amidinophenylmethanesulfonyl fluoride hydrochloride (APMSF)) followed by disrupting the Escherichia coli by ultrasonication, centrifuging (1400×g, 4° C., 20 minutes) and recovering the supernatant. The supernatant was passed through a 0.45 μm and subjected to His-Tagged purification using Profinia (Bio-Rad) in accordance with the protocol recommended by the manufacturer. The resulting purified protein solution was centrifuged (7500×g, 4° C., 15 minutes) using Centrifugal Filters (Ultracel-10K, Amicon Ultra) and the concentrated protein solution was used as “Dm3MaT3 protein solution”. The Avanti HP-26XP (rotor: JA-2) (Beckman Coulter) was used for centrifugation.
A reaction solution, obtained by mixing 30 μl of Dm3MaT3 protein solution (10 μg), 5 μl of 1 mg/ml malonyl-CoA, 5 μl of 1 M KPB (pH 7.0), 5 μl of 500 μg/ml luteolin 7-glucoside (dissolved in a 50% aqueous acetonitrile solution containing 0.1% TFA) and adjusting to a volume of 100 μl with water on ice, was held for 20 minutes at 30° C. Subsequently, 100 μl of stop buffer (90% aqueous acetonitrile solution containing 0.1% TFA) were added to stop the reaction followed by analyzing the reaction solution by high-performance liquid chromatography (Prominence, Shimadzu Corp.). Flavone was detected at 330 nm using the Shimadzu PDA SPD-M20A for the detector. […]

Dm3MaT3 [2] = test: Malonyl transfer activity of flower petal crude enzyme solution from genetically engineered rose introduced with Dm3MaT3 gene; assay type: biochemical; details: 2.5 μl of 1 mM apigenin, malonyl-CoA, 20 minutes at 30° C.; genetically engineered rose petals
Source text: In order to confirm that the Dm3MaT3 gene of the present invention encodes a protein having activity that transfers a malonyl group to position 6 of the glucose at position 7 of flavone 7-glucoside in plants, a binary vector pSPB7136 was constructed to express Dm3MaT3 in plants (see FIG. 8) and subsequently introduced into a rose (variety: Ocean Song). pBINPLUS (Van Engel et al., Transgenic Research 4, 288) was used for the basic skeleton, E1235S promoter (Mitsuhara et al., (1996) Plant Cell Physiol., 37, p. 49) was used for the promoter expressing Dm3MaT3 gene, and HSP terminator (Plant Cell Physiol. (2010) 51, 328-332) was used for the terminator in pSPB7136.
A crude enzyme solution was prepared from the petals of a rose strain in which was synthesized the transcription product of full-length cDNA Dm3MaT3 followed by an evaluation of the presence or absence of activity transferring a malonyl group to position 6 of the glucose at position 7 of flavone 7-glucoside. […]
A reaction solution, obtained by mixing 20 μl of the flower petal crude enzyme solution, 5 μl of 1 mg/ml malonyl-CoA, 5 μl of 1 M KPB (pH 7.0) and 2.5 μl of 1 mM apigenin (dissolved in 50% aqueous acetonitrile solution containing 0.1% TFA) and adjusting to a volume of 100 μl with water on ice, was held for 20 minutes at 30° C. […] Flavone was detected at 330 nm using the Shimadzu PDA SPD-M20A for the detector. […]

Dm3MaT3 [3] = test: Enzyme activity, protein solution crudely extracted from Escherichia coli expressing Dm3MaT3; assay type: biochemical, chrysanthemum; details: substrate with malonyl-CoA
Protocol: The Shim-Pack ODS 150 mm×4.6 mm column (Shimadzu Corp.) was used for the column. […] The flow rate was 0.6 ml/min.

Dm3MaT2 = test: Enzyme activity, protein solution crudely extracted from Escherichia coli expressing Dm3MaT2; assay type: biochemical, chrysanthemum; details: substrate with malonyl-CoA, 20 minutes at 30° C., pH 7.0, detection 330 nm
Dm3MaT1 = test: Enzyme activity, protein solution crudely extracted from Escherichia coli expressing Dm3MaT1; assay type: biochemical, chrysanthemum; details: substrate with malonyl-CoA, 20 minutes at 30° C., pH 7.0, detection 330 nm

Compound: O=c1cc(-c2ccc(O)cc2)oc2cc(O[C@@H]3O[C@H](CO)[C@@H](O)[C@H](O)[C@H]3O)cc(O)c12 [apigenin 7-glucoside]
reaction rate (percentage of substrate converted) (Dm3MaT3 [1]): 85.80%

Compound: OC[C@H]1O[C@@H](Oc2cc3c(O)cc(O)cc3[o+]c2-c2ccc(O)c(O)c2)[C@H](O)[C@@H](O)[C@@H]1O [cyanidin 3-glucoside]
amount of cyanidin 3-glucoside consumed in comparison with Dm3MaT1 (Dm3MaT3 [3]; detection 520 nm): clearly less
peak corresponding to cyanidin 3-malonylglucoside (HPLC) (Dm3MaT3 [3]; detection 520 nm): detected

Compound: O=c1cc(-c2ccc(O)c(O)c2)oc2cc(O[C@@H]3O[C@H](CO)[C@@H](O)[C@H](O)[C@H]3O)cc(O)c12 [luteolin 7-glucoside]
peak corresponding to luteolin 7-malonylglucoside (HPLC) (Dm3MaT2): not detected
reaction rate (percentage of substrate converted) (Dm3MaT3 [1]): 81.13%
peak corresponding to luteolin 7-malonylglucoside (HPLC) (Dm3MaT3 [3]; 20 minutes at 30° C., pH 7.0, detection 330 nm): detected
peak corresponding to luteolin 7-malonylglucoside (HPLC) (Dm3MaT1): not detected

Other lines, results leading:

peak corresponding to 7-malonylglucoside, share of the apigenin compounds in the enzyme reaction solution (Dm3MaT3 [2]): 2.04%
Compound: O=c1cc(-c2ccc(O)cc2)oc2cc(O)cc(O)c12 [apigenin]

reaction rate (percentage of substrate converted) (Dm3MaT3 [1]): 34.81%
Compound: O=c1cc(-c2ccc(O[C@@H]3O[C@H](CO)[C@@H](O)[C@H](O)[C@H]3O)c(O)c2)oc2cc(O)cc(O)c12 [luteolin 4′-glucoside]
